Source: patent publication US20090182135A1, “Amino modifiers” (priority 2007, published 2009)
Read-outs that look alike come from different tables or passages of the source. Each block holds one compound with its values, some of them ahead of it.

Assays:
[1] = commercially available trityl protecting groups, values stated without experiment; cited from earlier work
[2] = Stability of the amino modifier reagent in acetonitrile; assay type: physicochemical; details: room temperature
Experimental: The sulfoxy derivative survives conditions of polynucleotide synthesis and can either be cleaved with standard deblock solution, or left intact for an HPLC purification. […] UV quantification for release of the new protecting group is possible. Extinction coefficients (L/(mol×cm) shown in the Scheme above were measured in 2% TFA/DCM.

[3] = pKR+ determination of trityl alcohols by UV spectrophotometry in aqueous sulphuric acid solutions (Deno acidity function HR); assay type: physicochemical; details: for pKR+ (477 nm): absorbance at 477 nm
From the text: The physico-chemical properties of trityl cations have been thoroughly investigated. In 1955 Deno et al reported an empirical Acidity Function HR which allows the comparison of the stability of different trityl cations (N. C. Deno, J. J. Jaruzelski and A. Schriesheim, J. Am. Chem. Soc. 1955, 77, 3044). Using the acidity function and the methods described by Deno it is possible to evaluate the pKR+ parameter for trityl alcohol derivatives, which is a direct indication of the stability of the corresponding trityl cations.
Once the acidity function HR for a particular acidic solution is known, the pKR+ of a triarylcarbinol dissolved in that acidic solution can be calculated in a straightforward manner once the ratio [R^+]/[ROH] has been experimentally determined. Therefore, in order to determine pKR+ values in acidic solutions of known HR, the ratio [R^+]/[ROH] must be established or, what is the equivalent, the degree of ionization of the triarylcarbinol.
The [R^+]/[ROH] ratio can be determined by spectrophotometic means. In particular, for trityl derivatives, UV spectrophotometry is useful since trityl cations and their parent molecules show completely different absorption spectra in the UV region.
In general, the experimental procedure for determining pKR+ for a trityl alcohol is summarised as follows. A solution of the triaryl alcohol in question in acetic acid is prepared in a way that the final concentration of the solutions to be analysed by UV spectrometry are in the range of 10^−5 to 10^−7 molar. A constant amount of the acetic acid solution so prepared is then added to the solutions of sulphuric acid (for instance, using a micropipette) to carry out the UV spectrometry experiments. It is recommended that the values of E are measured at the λmax of the trityl cation.
Starting from the most concentrated sulphuric acid solutions, samples are prepared until it is observed that the absorbance of the samples starts to decay. In the range of concentrations prior to the decay of absorbance, the triaryl alcohol is dissolved in a sufficiently concentrated sulphuric to completely ionise it. Therefore, ε=εR. In the region of sulphuric acid concentrations in which the absorbance of the samples decays, a series of values for ε are collected.
Finally, a concentration of sulphuric acid is reached in which the absorbance at λmax is negligible (or the alcohol starts to precipitate). This indicates the end of the experiment and values for the [R^+]/[ROH] for a series of given HR are available.
The pKR+ can be determined using the equation
Using UV spectrometry, the λmax of the trityl cation was determined to be approximately 477 nm, as illustrated in FIG. 1. Absorbance values were recorded at this wavelength for different concentrations of sulphuric acid. […]

Compound: 4,4′-dimethoxytrityl [DMTr]
pKR+ [1]: −1.24

Compound: COc1ccc(C(NCCCCCCOP(OCCC#N)N(C(C)C)C(C)C)(c2ccc(OC)cc2)c2ccc([S+](C)[O-])cc2)cc1 (stereo not shown) [DMS(O)MTr amino modifier, 6-(4,4′-dimethoxy-4″-(methylsulfinyl)tritylamino)hexylolxy-(2-cyanoethoxy) diisopropylaminophosphine]
stability of the reagent in solution [2]: stable in acetonitrile at room temperature for at least two weeks

pKR+ (477 nm) ([3]; H2SO4 20%): −2.7 | pKR+ (477 nm) ([3]; H2SO4 25%): −2.6 | pKR+ (477 nm) ([3]; H2SO4 30%): −2.5 | pKR+ ([3]; overall value for the trityl alcohol, UV at λmax of the trityl cation in sulphuric acid solutions): −2.6
Compound: COc1ccc(C(O)(c2ccc(C)cc2)c2ccc(C)cc2)cc1 [MDMeTrOH, 4-methoxy-4′,4″-dimethyltrityl alcohol]

Compound: monomethoxytrityl [MMTr]
pKR+ [1]: −3.40
